Tests used:
CCRF-CEM = assay: NCI 60 screen, CCRF-CEM; assay type: cell-based; conditions: Homo sapiens, Leukemia
Method: (§1) The compounds synthesized were tested at the National Cancer Institute (NCI) for anti-proliferative activity in the 60 human tumor cell line assay.

HL-60(TB) = assay: NCI 60 screen, HL-60(TB); assay type: cell-based; conditions: Homo sapiens, Leukemia
Method: as §1

MOLT-4 = assay: NCI 60 screen, MOLT-4; assay type: cell-based; conditions: Homo sapiens, Leukemia
Method: as §1

RPMI-8226 = assay: NCI 60 screen, RPMI-8226; assay type: cell-based; conditions: Homo sapiens, Leukemia
Method: as §1

SR = assay: NCI 60 screen, SR; assay type: cell-based; conditions: Homo sapiens, Leukemia
Method: as §1

A549/ATCC = assay: NCI 60 screen, A549/ATCC; assay type: cell-based; conditions: Homo sapiens, Non-Small Cell Lung
Method: as §1

EKVX = assay: NCI 60 screen, EKVX; assay type: cell-based; conditions: Homo sapiens, Non-Small Cell Lung
Method: as §1

HOP-62 = assay: NCI 60 screen, HOP-62; assay type: cell-based; conditions: Homo sapiens, Non-Small Cell Lung
Method: as §1

HOP-92 = assay: NCI 60 screen, HOP-92; assay type: cell-based; conditions: Homo sapiens, Non-Small Cell Lung
Method: as §1

NCI-H226 = assay: NCI 60 screen, NCI-H226; assay type: cell-based; conditions: Homo sapiens, Non-Small Cell Lung
Method: as §1

NCI-H23 = assay: NCI 60 screen, NCI-H23; assay type: cell-based; conditions: Homo sapiens, Non-Small Cell Lung
Method: as §1

NCI-322M = assay: NCI 60 screen, NCI-322M; assay type: cell-based; conditions: Homo sapiens, Non-Small Cell Lung
Method: as §1

NCI-460 = assay: NCI 60 screen, NCI-460; assay type: cell-based; conditions: Homo sapiens, Non-Small Cell Lung
Method: as §1

NCI-H522 = assay: NCI 60 screen, NCI-H522; assay type: cell-based; conditions: Homo sapiens, Non-Small Cell Lung
Method: as §1

COLO 205 = assay: NCI 60 screen, COLO 205; assay type: cell-based; conditions: Homo sapiens, Colon
Method: as §1

HCC-2998 = assay: NCI 60 screen, HCC-2998; assay type: cell-based; conditions: Homo sapiens, Colon
Method: as §1

HCT-116 = assay: NCI 60 screen, HCT-116; assay type: cell-based; conditions: Homo sapiens, Colon
Method: as §1

HCT15 = assay: NCI 60 screen, HCT15; assay type: cell-based; conditions: Homo sapiens, HCT-15, Colon
Method: as §1

HT29 = assay: NCI 60 screen, HT29; assay type: cell-based; conditions: Homo sapiens, HT-29, Colon
Method: as §1

KM12 = assay: NCI 60 screen, KM12; assay type: cell-based; conditions: Homo sapiens, Colon
Method: as §1

SW-620 = assay: NCI 60 screen, SW-620; assay type: cell-based; conditions: Homo sapiens, Colon
Method: as §1

SF-268 = assay: NCI 60 screen, SF-268; assay type: cell-based; conditions: Homo sapiens, CNS
Method: as §1

SF-295 = assay: NCI 60 screen, SF-295; assay type: cell-based; conditions: Homo sapiens, CNS
Method: as §1

SF-539 = assay: NCI 60 screen, SF-539; assay type: cell-based; conditions: Homo sapiens, CNS
Method: as §1

SNB-19 = assay: NCI 60 screen, SNB-19; assay type: cell-based; conditions: Homo sapiens, CNS
Method: as §1

SNB-75 = assay: NCI 60 screen, SNB-75; assay type: cell-based; conditions: Homo sapiens, CNS
Method: as §1

U251 = assay: NCI 60 screen, U251; assay type: cell-based; conditions: Homo sapiens, U-251, CNS
Method: as §1

LOX IMVI = assay: NCI 60 screen, LOX IMVI; assay type: cell-based; conditions: Homo sapiens, Melanoma
Method: as §1

MALME-3M = assay: NCI 60 screen, MALME-3M; assay type: cell-based; conditions: Homo sapiens, Melanoma
Method: as §1

MDA-MB-435 = assay: NCI 60 screen, MDA-MB-435; assay type: cell-based; conditions: Homo sapiens, Melanoma
Method: as §1

SK-MEL-2 [1] = assay: NCI 60 screen, SK-MEL-2 (first line); assay type: cell-based; conditions: Homo sapiens; Melanoma, SK-MEL-2 (first of two lines so named, r37)
Method: as §1

SK-MEL-2 [2] = assay: NCI 60 screen, SK-MEL-2 (second line); assay type: cell-based; conditions: Homo sapiens; Melanoma, SK-MEL-2 (second of two lines so named, r38)
Method: as §1

SK-MEL-5 = assay: NCI 60 screen, SK-MEL-5; assay type: cell-based; conditions: Homo sapiens, Melanoma
Method: as §1

UACC-257 = assay: NCI 60 screen, UACC-257; assay type: cell-based; conditions: Homo sapiens, Melanoma
Method: as §1

UACC-62 = assay: NCI 60 screen, UACC-62; assay type: cell-based; conditions: Homo sapiens, Melanoma
Method: as §1

IGROV1 = assay: NCI 60 screen, IGROV1; assay type: cell-based; conditions: Homo sapiens, IGROV-1, Ovarian
Method: as §1

OVCAR-3 = assay: NCI 60 screen, OVCAR-3; assay type: cell-based; conditions: Homo sapiens, Ovarian
Method: as §1

OVCAR-4 = assay: NCI 60 screen, OVCAR-4; assay type: cell-based; conditions: Homo sapiens, Ovarian
Method: as §1

OVCAR-5 = assay: NCI 60 screen, OVCAR-5; assay type: cell-based; conditions: Homo sapiens, Ovarian
Method: as §1

OVCAR-8 = assay: NCI 60 screen, OVCAR-8; assay type: cell-based; conditions: Homo sapiens, Ovarian
Method: as §1

NCI/ADR-RES = assay: NCI 60 screen, NCI/ADR-RES; assay type: cell-based; conditions: Homo sapiens, Ovarian
Method: as §1

SK-OV-3 = assay: NCI 60 screen, SK-OV-3; assay type: cell-based; conditions: Homo sapiens, Ovarian
Method: as §1

786-0 = assay: NCI 60 screen, 786-0; assay type: cell-based; conditions: Homo sapiens, Renal
Method: as §1

A498 = assay: NCI 60 screen, A498; assay type: cell-based; conditions: Homo sapiens, Renal
Method: as §1

ACHN = assay: NCI 60 screen, ACHN; assay type: cell-based; conditions: Homo sapiens, Renal
Method: as §1

CAKI-1 = assay: NCI 60 screen, CAKI-1; assay type: cell-based; conditions: Homo sapiens, Renal
Method: as §1

RXF393 = assay: NCI 60 screen, RXF393; assay type: cell-based; conditions: Homo sapiens, RXF 393, Renal
Method: as §1

SN12C = assay: NCI 60 screen, SN12C; assay type: cell-based; conditions: Homo sapiens, Renal
Method: as §1

TK-10 = assay: NCI 60 screen, TK-10; assay type: cell-based; conditions: Homo sapiens, Renal
Method: as §1

UO-31 = assay: NCI 60 screen, UO-31; assay type: cell-based; conditions: Homo sapiens, Renal
Method: as §1

PC-3 = assay: NCI 60 screen, PC-3; assay type: cell-based; conditions: Homo sapiens, Prostatic
Method: as §1

DU-145 = assay: NCI 60 screen, DU-145; assay type: cell-based; conditions: Homo sapiens, Prostatic
Method: as §1

MCF7 = assay: NCI 60 screen, MCF7; assay type: cell-based; conditions: Homo sapiens, Breast
Method: as §1

MDA-MB-231/ATCC = assay: NCI 60 screen, MDA-MB-231/ATCC; assay type: cell-based; conditions: Homo sapiens, Breast
Method: as §1

HS 578T = assay: NCI 60 screen, HS 578T; assay type: cell-based; conditions: Homo sapiens, Breast
Method: as §1

BT-549 = assay: NCI 60 screen, BT-549; assay type: cell-based; conditions: Homo sapiens, Breast
Method: as §1

T-47D = assay: NCI 60 screen, T-47D; assay type: cell-based; conditions: Homo sapiens, T47D, Breast
Method: as §1

MDA-MB-468 = assay: NCI 60 screen, MDA-MB-468; assay type: cell-based; conditions: Homo sapiens, Breast
Method: as §1

Cc1ccc(NC(=O)Cc2ccc(/C=C/C(=O)c3ncc[nH]3)cc2)cc1 [Compound 20, (E)-2-(4-(3-(1H-imidazol-2-yl)-3-oxoprop-1-en-1-yl)phenyl)-N-(p-tolyl)acetamide]
GI50 (CCRF-CEM): 4.67 µM | GI50 (HL-60(TB)): 5.88 µM | GI50 (MOLT-4): 5.33 µM | GI50 (RPMI-8226): 1.79 µM | GI50 (SR): 0.99 µM | GI50 (A549/ATCC): 9.14 µM | GI50 (EKVX): 1.35 µM | GI50 (HOP-62): 5.24 µM | GI50 (HOP-92): 1.85 µM | GI50 (NCI-H226): 9.59 µM | GI50 (NCI-H23): 5.85 µM | GI50 (NCI-322M): 6.06 µM | GI50 (NCI-460): 6.32 µM | GI50 (NCI-H522): 4.54 µM | GI50 (COLO 205): 7.27 µM | GI50 (HCC-2998): 6.73 µM | GI50 (HCT-116): 3.28 µM | GI50 (HCT15): 2.01 µM | GI50 (HT29): 0.955 µM | GI50 (KM12): 3.09 µM | GI50 (SW-620): 5.22 µM | GI50 (SF-268): 5.32 µM | GI50 (SF-295): 7.9 µM | GI50 (SF-539): 4.76 µM | GI50 (SNB-19): 6.65 µM | GI50 (SNB-75): 7 µM | GI50 (U251): 1.59 µM | GI50 (LOX IMVI): 1.29 µM | GI50 (MALME-3M): 25 µM | GI50 (MDA-MB-435): 5.68 µM | GI50 (SK-MEL-2 [1]): 18.1 µM | GI50 (SK-MEL-2 [2]): 11.5 µM | GI50 (SK-MEL-5): 18.3 µM | GI50 (UACC-257): 25 µM | GI50 (UACC-62): 8.29 µM | GI50 (IGROV1): 6.47 µM | GI50 (OVCAR-3): 1.67 µM | GI50 (OVCAR-4): 10.4 µM | GI50 (OVCAR-5): 6.84 µM | GI50 (OVCAR-8): 7.24 µM | GI50 (NCI/ADR-RES): 6.73 µM | GI50 (SK-OV-3): 12.8 µM | GI50 (786-0): 4.28 µM | GI50 (A498): 19.9 µM | GI50 (ACHN): 6.51 µM | GI50 (CAKI-1): 9.63 µM | GI50 (RXF393): 7.68 µM | GI50 (SN12C): 5.91 µM | GI50 (TK-10): 7.93 µM | GI50 (UO-31): 3.01 µM | GI50 (PC-3): 7.1 µM | GI50 (DU-145): 4.56 µM | GI50 (MCF7): 1.15 µM | GI50 (MDA-MB-231/ATCC): 9.46 µM | GI50 (HS 578T): 13.6 µM | GI50 (BT-549): 6.42 µM | GI50 (T-47D): 6.47 µM | GI50 (MDA-MB-468): 3.3 µM | melting point: 218.5 °C

— patent US11098038B2, “Imidazole-based anticancer agents and derivatives thereof, and methods of making and using same” (The University of Toledo, priority 2017, dated 2021)
